Test results: paper PMC6240096, “A hPSC-based platform to discover gene-environment interactions that impact human β-cell and dopamine neuron survival” (Nature Communications, 2018)

Assays:
MIN6 cells = assay: Western blotting of γ-H2A.X and extracellular HMGB1 in MIN6 cells; type: cell-based, mouse; settings: time course 1 to 30 h
Description: To extract intracellular protein, cells were placed on ice, washed twice with ice-cold PBS and lysed immediately with RIPA buffer (Life Technologies, 89900) supplemented with a protease inhibitor cocktail (Life Technologies, 78440). Cell lysates were then sonicated and the soluble fraction was collected after centrifugation. Protein amount was quantified by the BCA protein assay (Life Technologies, 23227). To extract extracellular HMGB1, tissue culture media were collected and concentrated using Afyon SDS-PAGE sample preparation kit (advansta, K-02101-025). 20 μg of total protein for each sample was mixed with loading buffer and incubated for 5 min at 95 °C before being loaded into NuPAGE® Novex® 4–12% […] Protein Gels (Life Technologies, NP0321BOX) for electrophoresis. Separated proteins were transferred to a PVDF membrane (Millipore, IPSN07852) after electrophoresis. The membrane was blocked with 5% non-fat milk in TBST (50 mM Tris–HCl at pH 8.0, 150 mM NaCl, 0.1% Tween 20) followed by overnight incubation with the primary antibody at 4 °C. The following antibodies were used with the dilution ratio noted: rabbit anti-HMGB1 (1:1000, Cell Signaling Technology, #6893), rabbit anti-γ-H2A.X (1:1000, Cell Signaling Technology, #9718), rabbit anti-LC3B (1:1000, Cell Signaling Technology, #3868), mouse anti-GSTT1 (1:1000, GeneTex, GTX109250), rabbit anti-GSTM1 (1:1000, R&D system, MAB6894), mouse anti-GAPDH (1:50000, Abcam, ab8245). A peroxidase conjugated horse anti-mouse IgG secondary antibody (1:20000, Vector Laboratories, PI-2000) or peroxidase conjugated goat anti-Rabbit IgG secondary antibody (1:20000, Vector Laboratories, PI-1000) was used for western blot. ECL signals were developed and detected using the SuperSignal™ West Femto Maximum Sensitivity Substrate (Life Technologies, 34094) and a C-DiGit Chemiluminescent Western Blot Scanner (LI-COR). Uncropped scans of all the blots were shown in Supplementary Fig. 7 in the Supplementary Information.

[1] = test system: MYH6:mCherry+ cardiomyocytes; assay: Inhibition curve on hESC-derived cardiomyocytes; type: cell-based, human; settings: cell survival rate, 4 days, n=3
Procedure: hESCs-derived INS^+ cells, MSCs[43], neurons, and hepatocytes[44] were derived based on the reported protocols and re-plated on 96-well plates with Accutase digestion. Cardiomyocytes (CMs) were differentiated from H9-MYH6: mCherry reporter line, based on the reported protocol. After overnight incubation, cells were treated with DMSO or different doses of hit compounds for 4 days. After fixation, the cells were stained with markers for each cell type. DAPI was used to stain cell nuclei. Plates were analyzed by ImageXpress^MICRO Automated High-Content Analysis System.
Supplementary Figure 4. Assessment of the toxic effect of propargite on different type […]
(a) Flow cytometry char acterization of CD29+ and CD73+ mesenchymal stem cells (MSCs) derived from H1 hESCs. (b-c) microscope image (b) and flow cytometry (c) characterization of cardiomyocytes expressing MYH6+ derived from a MYH6:mCherry reporter hESC line. (d-e) Immunocytochemistry characterization of MAP2+/TUJ1+ and HuC/D+/MAP2+ neurons (d) and A1AT+/ASGPR1+ hepatocytes (e) derived from H1 hESCs. All the cells were counterstained by DAPI (blue). Scale bars, 100 µm. (f) Inhibition curve of propargite on pancreatic β-like cells, MSCs, cardiomyocytes, neurons, and hepatocytes derived from hESCs, and BJ-fibroblasts (n=3). Values presented as mean±S.D. […]

INS-GFP+ cells = assay: RNA-seq of INS-GFP+ cells; type: cell-based, human; settings: 1.6 µM propargite-treated INS-GFP+ cells
Description: The INS-GFP^+ cells were sorted and RNA from the sorted cells was extracted with Absolutely RNA Nanoprep kit (Agilent Technologies, 400753). The RNA quality was validated with a bioanalyzer (Agilent). The cDNA libraries were synthesized using the TruSeq RNA Sample Preparation kit (Illumina) and sequenced in single-read with the HiSeq2000/1000 sequencer (Illumina) at Weill Cornell Genomics Resources Core Facility. The reads were aligned to the human hg19 reference genome with Tophat2[48]. Gene expression data were analyzed with Cufflinks[49]. To generate heat maps displaying the differential gene expression patterns of different samples, the RPKM values were normalized per gene over all samples. The heat maps were then generated by Heatmap.2 in the R plots package. David functional annotation tool[50] was used for gene ontology analysis and Ingenuity Pathway Analysis tool was used for pathway analysis.

mouse pancreatic β-cells = assay: CD-1 mice treated by intraperitoneal injection for 5 days; type: in vivo
Procedure: All animal work has been approved by IACUC committee of Weill Cornell Medical College. CD-1 adult male mice were treated with different doses of propargite or vehicle (corn oil) through intraperitoneal injection for 5 days. Fasting blood glucose level were monitored every day using Abbott FreeStyle Lite blood glucose monitoring system. Then, CD-1 adult male mice were treated with 12 mg/kg propargite or vehicle (corn oil) through intraperitoneal injection for 5 days. Fasting blood was collected via tail nicking following 14–16 h of fasting with ad libitum access to drinking water. Serum mouse insulin levels were assessed by ELISA (80-INSMR-CH01, Alpco). Mice were then killed. The pancreases were embedded in OCT. The tissue was then sectioned at 5 μm for immunohistochemistry staining analysis of DNA damage marker γ-H2A.X and β-cell marker INS.

[2] = 12 mg/kg daily for 5 days, intraperitoneal, CD-1 mice

In the case of “2-(4-tert-butylphenoxy)-cyclohexyl prop-2-yne-1-sulfonate [propargite]”, the “time after treatment at which γ-H2A.X was induced” value (MIN6 cells) is reported as 12 h, the “time after treatment of detection of extracellular HMGB1” value (MIN6 cells) is reported as 18 h and the IC50 [1] is reported as 29 µM. The “fold-change of upregulated DNA damage genes (DDIT3, GADD45A)” value (INS-GFP+ cells) was > 3, the blood glucose level (mouse pancreatic β-cells; [2]) was “lightly increased” and the body weight (mouse pancreatic β-cells; [2]) was “without significantly affecting”. For the same substance, the “insulin levels in the plasma of fasted mice” value (mouse pancreatic β-cells; [2]) was “significant reduction” and the “percentage of γ-H2AX+/INS+ in INS+ cells (DNA damage)” value (mouse pancreatic β-cells; 12 mg/kg, mouse pancreas) was “significant increase”.
